The source of these data is US7223864B2, “2-hydroxyethidium, methods of preparation and uses thereof” (MCW Research Foundation, Inc., priority 2004, dated 2007).

A short description of data set [1]: Fluorescence measurements (fluorescence spectral characteristics). The class given is physicochemical. Particulars: for Fluorescence color / Emission maximum (nm): /DNA labels = in the presence of DNA; for Extinction coefficient (mM^−1)*: E^+: excitation maximum 518 nm, HE/superoxide product: excitation maximum 480 nm, slit 3 nm, emission slit 20 nm; for Emission maximum (nm): phosphate buffer (100 mM, pH 7.4). The method, then: (§1) Fluorescence measurements—The oxidation of HE in a superoxide generating system was performed on a Shimadzu RF-5301 PC spectrofluorometer (Shimadzu Scientific Instruments Inc., Japan). Typically, excitation was at 510 nm with a 3 or 5 nm slit width and the spectra were recorded over a wavelength region of 540–800 nm using a 10 or 20 nm slit width. The fluorescence emission spectra indicate the actual color of the product of superoxide and HE reaction, E^+ and HE.
Superoxide generation was measured to be 8 μM/min.

Data set [2] has as its system X/XO-catalyzed oxidation of HE (superoxide). In words: Oxidation of HE by xanthine/xanthine oxidase (X/XO), fluorescence. The class given is biochemical. The conditions noted are these: for effect on increase in fluorescence due to X/XO-catalyzed oxidation of HE: HE 50 μM, DNA 250 μg mL^−1, SOD 20 μg mL^−1, catalase 1000 U mL^−1. The protocol: (A) Incubation mixtures consisted of HE (50 μM), xanthine (1 mM), DTPA (100 μM), and XO (0.05 U mL^−1) in aerated phosphate buffer (100 mM, pH 7.4). Reaction was initiated by the addition of XO and the fluorescence spectrum recorded after 30 min. Shown for comparison is the spectrum obtained from E^+ (50 μM) obtained under identical experimental conditions. (B) Same as (A) but in the presence of DNA (250 μg mL^−1). (C) Incubations contained HE (50 μM), DTPA (100 μM) and DNA (250 μg mL^−1) and xanthine (1 mM) or XO (0.05 U mL^−1), both in the presence and absence of SOD (20 μg mL^−1). (D) Same as (B) but in the presence of catalase (1000 U mL^−1).
(A) Incubation initially consisted of HE (50 μM), xanthine (1 mM), XO (0.025 U mL^−1) and DTPA (100 μM) in phosphate buffer (100 mM, pH 7.4). A 50 μM of DEA/NO added at the point indicated by downward arrow. After the increase in fluorescence intensity ceased, an additional bolus amount of HE was added. (B) Same as (A) except XO (0.005 U mL^−1) and DEA/NO were added at a much lower concentration (10 μM).
as §1

Data set [3] has as its system oxidation of HE by potassium superoxide. The data set is described as follows: Oxidation of HE by potassium superoxide, fluorescence. Particulars: SOD 20 μg mL^−1, KO2 1.1 mM. The class given is biochemical. The method, then:
(A) Incubations consisted of HE (50 μM), DTPA (100 μM), and KO2 in the presence and absence of DNA (250 μg mL^−1) in phosphate buffer (100 mM, pH 7.4). Superoxide solution was prepared by adding 1 mg of KO2 in 1 mL of dry DMSO and vortexed vigorously for 10 min. The reaction was initiated by adding 40 μL of freshly prepared KO2 in DMSO to 0.46 mL of the above buffer (final concentration of KO2 was 1.1 mM). (B) Same as (A) but also containing SOD (20 μg mL^−1). The extent of oxidation of HE under these conditions is much less than that observed in X/XO.
as §1

The target of data set [4] is T1, endothelial nitric oxide synthase (eNOS) (Bos taurus, UniProt P29473).
T1 construct: made in house; host or cells: Escherichia coli
In words: Oxidation of HE by endothelial NOS, fluorescence. Type of data set: biochemical. The conditions noted are these: SOD 20 μg mL^−1; BH4 10 μM; Ca^2+/CaM. The protocol: (A) Incubations consisted of NADPH (0.1 mM), DTPA (100 μM), HE (50 μM), L-arginine (0.1 mM), purified eNOS (6.25 μg mL^−1), and Ca^2+ (0.2 mM)/CaM (20 μg mL^−1) in a HEPES buffer (50 mM, pH 7.4). Spectra were obtained 30 min after the addition of eNOS to different incubation mixtures. […] (B) Time-dependent changes in fluorescence of the product formed from an incubation mixture containing NADPH (0.1 mM), HE (50 μM), DTPA (100 μM), Ca^2+ (0.2 mM)/CaM (20 μg mL^−1), and purified eNOS (6.25 μg mL^−1) in a HEPES buffer (50 mM, pH 7.4). (C) Same as (B) except in the presence of SOD (20 μg mL^−1).
as §1

The conditions of data set [5]: literature value used in competition analysis; cited from earlier work.
For data set [6], the system named is Bovine aortic endothelial cells. The data set is described as follows: Intracellular detection of superoxide with HE in menadione-treated cells. Type of data set: cell-based. Particulars: 25 min menadione exposure, then 10 μM HE for 20 min; versus control cells. The protocol: Bovine aortic endothelial cells were treated with menadione, a redox-cycling quinone known to induce cellular oxidative stress. After 25 min of exposure, cells were washed free of extracellular menadione and treated with 10 μM of HE for 20 min. Cells were washed and fluorescent images obtained in a fluorescence microscope. […] Cells were lysed and products extracted with n-butanol. After centrifugation to separate out the cell debris, the top layer of butanol was dried, dissolved in water, and HPLC/fluorescence chromatogram was obtained (FIG. 12). The intense peak eluting at 29 min corresponds to that of 2-hydroxyethidium (FIG. 12, top trace). For better separation in biological samples, a linear increase in CH3CN concentration from 10% to 70% in 46 min was used instead of a linear increase in CH3CN concentration from 10% to 40% in 30 min. The other HPLC analysis conditions were same as described above.

Data set [7] is described as follows: Competition kinetic analysis of the reaction between HE and superoxide. The conditions noted are these: tentative, competition with BMPO and Cu, Zn-SOD. The method, then: Kinetic analysis of the reaction between HE and superoxide—The rate constant between HE and superoxide was calculated from competition experiments. At saturating concentrations of HE, superoxide will be consumed as follows:
Dismutation of superoxide was not considered in our analysis, because at saturating concentrations of HE (compared to superoxide flux), this reaction is negligible (Vásquez-Vivar, J. et al. Free Radic. Biol. Med. 31:975–985, 2001). Thus, assuming a steady-state approximation, the rate of superoxide consumption will be equal to new fluorescent product (P) formation, defined by
[formula] where kHE is the apparent rate constant for the reaction of HE with superoxide under the experimental conditions. Therefore, the ratio between V and V0 that corresponds to the rate of new product formation in the presence and absence of scavenger, respectively, is defined by
[formula] The values of V and V0 can be calculated from variations in fluorescence intensity of new product over time. In these experiments, 5-tert-butoxycarbonyl 5-methyl-1-pyrroline N-oxide (BMPO) and bovine Cu, Zn-SOD were used to trap or dismutate superoxide. The rate constant used for the reaction between BMPO and superoxide was 77±5 M^−1 s^−1 (Rosen, G. et al. J. Biol. Chem. 277:40275–40280, 2002) and 3×10^9 M^−1 s^−1 for Cu, Zn-SOD. […]

On to `CC[n+]1c(-c2ccccc2)c2cc(N)ccc2c2cc(O)c(N)cc21` [HE/superoxide product, 2-hydroxyethidium], for which, in data set [1], the Fluorescence color entry was “Orange”, the “Extinction coefficient (mM^−1)*” value was 285 mM⁻¹ and the “Emission maximum (nm)” value was 586 nm. For the same compound, the emission maximum in data set [1] (purified product, in the presence of DNA (250 μg mL^−1) in phosphate buffer) worked out at 567 nm.

`CC[n+]1c(-c2ccccc2)c2cc(N)ccc2c2ccc(N)cc21` [E^+, ethidium]: in data set [1], the Fluorescence color result is “Red”, the “Extinction coefficient (mM^−1)*” value turned out to be 232 mM⁻¹ and the “Emission maximum (nm)” value is on record as 603 nm. For the same compound, the “Emission maximum (nm)” value in data set [1] (listed as ethidium) is 605 nm.

For the compound `CCN(CC)[N+]([O-])=NO` [DEA/NO, 2-(N,N-diethylamino)-diazenolate-2-oxide], the “effect on increase of fluorescence due to superoxide-dependent oxidation of HE by X/XO” value in data set [2] (DEA/NO 10 μM, XO 0.005 U mL^−1) was “inhibited”.

On to catalase, for which the “effect on increase in fluorescence due to X/XO-catalyzed oxidation of HE” value in data set [2] is reported as “increased slightly”.

Regarding “Cu, Zn-SOD: Bovine copper, zinc superoxide dismutase”, in data set [2], the “effect on increase in fluorescence due to X/XO-catalyzed oxidation of HE” value was “completely nullified”. Also, the “effect on formation of fluorescent product from HE and potassium superoxide” value in data set [3] is “inhibited the formation of this product”. Moreover, the “effect on oxidation of HE by eNOS” value in data set [4] was “inhibited the oxidation of HE”. The “rate constant used for the reaction with superoxide” value in data set [5] was 3e+09 M⁻¹ s⁻¹.

Turning to `CC1=CC(=O)c2ccccc2C1=O` [menadione], the “fluorescence of cells after HE (fluorescence microscope)” value in data set [6] is recorded as “intense red fluorescence”.

As to `CCN1c2cc(N)ccc2-c2ccc(N)cc2C1c1ccccc1` (centres unmarked) [HE, Hydroethidine (dihydroethidium)], in data set [1], the Fluorescence color result is “Red”, the “Extinction coefficient (mM^−1)*” value was 48 mM⁻¹ and the “Emission maximum (nm)” value was determined as 595 nm. Moreover, in data set [7], the “rate constant between the superoxide anion and HE” value was “approximately 2.6±0.6×10^5 M^−1 s^−1”.

For the compound `CC(C)(C)OC(=O)C1(C)CCC=[N+]1[O-]` (centres unmarked) [BMPO, 5-tert-butoxycarbonyl 5-methyl-1-pyrroline N-oxide], in data set [5], the “rate constant used for the reaction with superoxide” value was 77 ± 5 M⁻¹ s⁻¹.
